Values of other authors, collected in EP2792015B1, “HIGH SPECIFIC-ENERGY LI/02-CO2 BATTERY” (Robert Bosch GmbH, priority 2011, dated 2013).
In brackets after ≈: the same amount, converted by molar mass. Read-outs that look alike come from different tables or passages of the source.

Details: 1 atmosphere and 25°C

SMILES	Solubility (in H2O) [µg/mL]	Solubility (in propylene carbonate) [µg/mL]
O=C=O [CO2, carbon dioxide]	1450 (≈ 32.9 mM)	6115 (≈ 139 mM)
O=O [O2, oxygen]	8.3 (≈ 0.259 mM)	110 (≈ 3.44 mM)
